Here are results for 10 compounds from patent US5852213A, “Mercaptoketones and mercaptoalcohols and a process for their preparation” (American Cyanamid Company, priority 1997, dated 1998).

One assay has as its system Collangenase I. As to the kind of experiment: In vivo MMP Inhibition (enzyme in implanted dialysis tubing). Details: species or system rat (Sprague-Dawley) or mouse (CD-1). Here is the method:
A 2 cm piece of dialysis tubing (molecular weight cut-off 12-14,000, 10 mm flat width) containing matrix metalloproteinase enzyme (stromelysin, collagenase or gelatinase in 0.5 mL of buffer) is implanted either ip or sc (in the back) of a rat (Sprague-Dawley, 150-200 g) or mouse (CD-1, 25-50 g) under anesthesia. Drugs are administered PO, IP, SC or IV through a canula in the jugular vein. Drugs are administered in a dose volume of 0.1 to 0.25 mL/animal. Contents of the dialysis tubing is collected and enzyme activity assayed.
Enzyme reaction rates for each dialysis tube are calculated. Tubes from at least 3 different animals are used to calculate the mean±sem. Statistical significance (p<0.05) of vehicle-treated animals versus drug-treated animals is determined by analysis of variance. (Agents and Actions 21: 331, 1987)

For a further assay, the system named is MMP. Particulars: EP 0322,184 A2; cited from earlier work.
The target of assay [1] is T1, human recombinant fibroblast collagenase (Homo sapiens, UniProt P03956).
T1 construct: human recombinant fibroblast collagenase (truncated, mw 18,828, WAR, Radnor)
T1 sequence (P03956 100-269 limits assumed): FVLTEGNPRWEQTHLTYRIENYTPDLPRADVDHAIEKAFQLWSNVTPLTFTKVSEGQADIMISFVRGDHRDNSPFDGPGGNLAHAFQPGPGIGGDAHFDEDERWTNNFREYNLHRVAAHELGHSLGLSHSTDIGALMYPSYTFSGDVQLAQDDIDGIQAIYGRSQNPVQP
As to the kind of experiment: Collagenase Inhibition in vitro. The class given is biochemical. Particulars: read-out: Collagenase IC50 (nM) or % inhibition: % inhibition. The protocol:
Collagenase Inhibition in vitro
The assay is based on the cleavage of a peptide substrate ((Dnp-Pro-Cha-Gly-Cys(Me)-His-Ala-Lys(NMa)-NH2), Peptide International, Inc.) by collagenase releasing the fluorescent NMa group which is quantitated on the fluorometer. Dnp quenches the NMa fluorescence in the intact substrate. […] Substrate is dissolved in methanol and stored frozen in 1 mM aliquots. […] For the assay, substrate is dissolved in HCBC buffer to a final concentration of 10 μM and collagenase to a final concentration of 5 nM. Compounds are dissolved in methanol, DMSO, or HCBC. The methanol and DMSO are diluted in HCBC to <1%. Compounds are added to the 96 well plate containing enzyme and the reaction is started by the addition of substrate.
The slope of the line is calculated and represents the reaction rate.
(§1) The linearity of the reaction rate is confirmed (r^2 >0.85). The mean of the control rate is calculated and compared for statistical significance (p<0.05) with drug-treated rates using Dunnett's multiple comparison test.

In assay [2] the test system is human recombinant stromelysin. As to the kind of experiment: Stromelysin Inhibition in vitro. The class given is biochemical. The protocol:
Stromelysin Inhibition in vitro.
The increase in OD405 is plotted and the slope of the line is calculated which represents the reaction rate.
as §1

For another assay, the system named is stromelysin. Particulars: PCT application WO 9407481; cited from earlier work.

In the case of “(2R,4R)-4-Hydroxy-2-isobutyl-5-tritylsulfanylpentanoic acid ((1S)-2,2-dimethyl-1-methylcarbamoylpropyl)amide [Example 35]”, the “in vivo % Collangenase I inhibition” value in the assay on Collangenase I (50 mpk (milligrams/kilogram)) turned out to be 0.44%.

With `CNC(=O)[C@@H](NC(=O)[C@H](CC(C)C)C[C@H](O)CS)C(C)(C)C` [Example 40, (2R,4S)-4-Hydroxy-2-isobutyl-5-mercaptopentanoic acid ((1S)-2,2-dimethyl-1-methylcarbamoylpropyl)amide], the “in vivo % Collangenase I inhibition” value in the assay on Collangenase I (50 mpk (milligrams/kilogram)) came out at 84.8%.

As to `CNC(=O)[C@H](Cc1ccc(OC)cc1)NC(=O)[C@H](CC(C)C)C(C)S` (some centres unmarked) [compound where P is methyl], the “times more potent than the compound where P is hydrogen” value in the assay with MMP is “approximately 20 times”.

In the case of `CCCCCCC[C@H](C[C@@H](O)CS)C(=O)N[C@H](C(=O)NC)C(C)(C)C` [Example 37, (2R)-2-((2R)-2-Hydroxy-3-mercaptopropyl)nonanoic acid ((1S)-2,2-dimethyl-1-methylcarbamoylpropyl)amide], the inhibition at 1 µM in assay [1] was determined as 72%.

In the case of `CCCCCCC[C@H](CC(=O)CS)C(=O)N[C@H](C(=O)NC)C(C)(C)C` [Example 43, (2R)-2-(3-Mercapto-2-oxopropyl)nonanoic acid ((1S)-2,2-dimethyl-1-methylcarbamoylpropyl)amide], the IC50 in assay [2] (read-out: Stromelysin IC50 (nM) or % inhibition: IC50) worked out at 28 nM. The “in vivo % Collangenase I inhibition” value in the assay on Collangenase I (50 mpk (milligrams/kilogram)) stood at 0.73%.

`CNC(=O)[C@H](Cc1ccc(OC)cc1)NC(=O)[C@H](CC(C)C)C(S)CC(C)=O` (some centres unmarked) [compound where P is 2-oxopropyl]: the “times more potent than the compound where P is methyl” value in the assay on MMP is “approximately 20 times”.

In the case of `CCCCCCC[C@H](C[C@H](O)CS)C(=O)N[C@H](C(=O)NC)C(C)(C)C` [Example 38, (2R)-2-((2S)-2-Hydroxy-3-mercaptopropyl)nonanoic acid ((1S)-2,2-dimethyl-l-methylcarbamoylpropyl)amide], the “Stromelysin IC50 (nM) or % inhibition: % inhibition” value (from here on “Stromelysin IC50 … % inhibition”) in assay [2] (@ 0.1 μM) stood at 96%. Also, the “in vivo % Collangenase I inhibition” value in the assay on Collangenase I (50 mpk (milligrams/kilogram)) turned out to be 22.2%.

On to `CNC(=O)[C@@H](NC(=O)[C@@H](CC(=O)CS)CC(C)C)C(C)(C)C` [Example 44, (2R)-2-Isobutyl-5-mercapto-4-oxopentanoic acid ((1S)-2,2-dimethyl-1-methylcarbamoylpropyl)amide], for which the “Stromelysin IC50 … % inhibition” value in assay [2] (@ 1 μM) came out at 58%. For the same compound, in the assay on Collangenase I (60 mpk (milligrams/kilogram)), the “in vivo % Collangenase I inhibition” value came out at 4.8%.

`CC(C)C[C@H](NC(=O)[C@@H](CS)CCc1ccccc1)C(=O)Nc1ccccc1`: the “inhibitor of the MMP stromelysin” value in the assay with stromelysin is recorded as “moderate inhibitor”.

In the case of `CNC(=O)[C@@H](NC(=O)[C@H](CC(C)C)C[C@@H](O)CS)C(C)(C)C` [Example 39, (2R,4R)-4-Hydroxy-2-isobutyl-5-mercaptopentanoic acid ((1S)-2,2-dimethyl-1-methylcarbamoylpropyl)amide], the “Stromelysin IC50 … % inhibition” value in assay [2] (@ 300 nM) is 6%. Also, in the assay with Collangenase I (50 mpk (milligrams/kilogram)), the “in vivo % Collangenase I inhibition” value is listed as 20.4%.

Usually inhibition stands for the change of the read-out against control, counted positive when it falls. Usually IC50 stands for the point on the concentration scale where inhibition reaches its midpoint.
